B1: Peptide deformylase, mitochondrial (Homo sapiens), Q9HBH1 (protein)
chain: MARLWGALSLWPLWAAVPWGGAAAVGVRACSSTAAPDGVEGPALRRSYWRHLRRLVLGPPEPPFSHVCQVGDPVLRGVAAPVERAQLGGPELQRLTQRLVQVMRRRRCVGLSAPQLGVPRQVLALELPEALCRECPPRQRALRQMEPFPLRVFVNPSLRVLDSRLVTFPEGCESVAGFLACVPRFQAVQISGLDPNGEQVVWQASGWAARIIQHEMDHLQGCLFIDKMDSRTFTNVYWMKVND

Columns and labels:
Peptide deformylase = target: T1, Peptide deformylase (Escherichia coli, UniProt Q9JN24); assay: Compound was evaluated for inhibitory activity against Peptide deformylase
T1 sequence (Q9JN24 whole entry): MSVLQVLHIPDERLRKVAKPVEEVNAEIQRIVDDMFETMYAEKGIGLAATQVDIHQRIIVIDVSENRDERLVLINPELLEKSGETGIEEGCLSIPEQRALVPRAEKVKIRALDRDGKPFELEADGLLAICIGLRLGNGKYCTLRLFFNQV

[1] = Compound was evaluated for inhibitory activity against Zn2+ deformylase.
[2] = substrate: CCCC[C@H](O[PH](=O)O)C(=O)N[C@@H](CC(C)C)C(=O)Nc1ccc([N+](=O)[O-])cc1
Description: Apparent KM against enzyme peptide deformylase (PDF)

Molecule | Ki (Peptide deformylase) | Ki [1] | Km [2]
CCCC[C@@H](O[PH](=O)O)C(=O)N[C@@H](CC(C)C)C(=O)Nc1ccc([N+](=O)[O-])cc1 | 125 µM |  | 
CCCC[C@H](O[PH](=O)O)C(=O)N[C@@H](CC(C)C)C(=O)Nc1ccc([N+](=O)[O-])cc1 | 37 µM | 76 µM | 
B1 |  |  | 20 µM
